ChEMBL document CHEMBL1201862, “PubChem BioAssay data set” (2004)
The source made the active and inactive calls.

Target: Cytochrome P450 2C19 (Homo sapiens, UniProt P33261)
Test: Cytochrome panel assay with activity outcomes. Panel member name: p450-cyp2c19 Compounds with AC50 equal or less than 10 uM are considered active
Type: functional
Conditions: read-out: AC50

Sequence of Cytochrome P450 2C19 (P33261 whole entry): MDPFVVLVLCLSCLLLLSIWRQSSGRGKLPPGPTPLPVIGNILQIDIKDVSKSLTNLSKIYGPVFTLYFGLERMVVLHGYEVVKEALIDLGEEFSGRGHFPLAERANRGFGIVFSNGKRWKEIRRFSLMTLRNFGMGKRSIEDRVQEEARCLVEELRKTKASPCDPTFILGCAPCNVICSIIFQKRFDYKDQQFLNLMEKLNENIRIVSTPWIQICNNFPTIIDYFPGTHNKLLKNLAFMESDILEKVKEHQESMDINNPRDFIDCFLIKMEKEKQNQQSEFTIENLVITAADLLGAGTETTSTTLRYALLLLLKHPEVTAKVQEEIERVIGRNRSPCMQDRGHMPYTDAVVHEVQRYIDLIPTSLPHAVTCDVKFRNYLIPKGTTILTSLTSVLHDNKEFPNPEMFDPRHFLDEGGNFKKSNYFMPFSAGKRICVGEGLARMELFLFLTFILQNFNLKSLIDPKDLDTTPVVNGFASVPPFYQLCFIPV

Structure (SMILES) | AC50
C=CCn1c(SCC(=O)Nc2ncc(Cc3ccc(Br)cc3)s2)nnc1-c1ccncc1 | 2.82 µM (inconclusive)
Cc1ccc(NC(=O)C2CC(=O)n3c(nc4ccccc43)N2)cc1 (stereo not drawn) | 6.31 µM (inconclusive)
COc1cc(C(=O)NCC(c2cccnc2)N2CCN(C)CC2)cc(OC)c1OC (stereo not drawn) | 39.8 µM (inconclusive)
COC(=O)Cn1c(C(=O)N(C)C)cc2c1C[C@H]1CN(C(=O)c3ccccc3)[C@@](Cc3ccc(OC)cc3)(C(=O)OC)[C@@H]21 | 20 µM (inconclusive)
O=C(CN1C(=O)NC2(CCCCCC2)C1=O)N1CCN(S(=O)(=O)c2ccc(Cl)cc2)CC1 | 20 µM (inconclusive)
COc1ccc(-n2c(C)cc(C=O)c2C)cc1Cl | 3.98 µM (inconclusive)
O=c1c(-c2cccs2)nc2cnc(Oc3ccccc3)nc2n1C1CC1 | 1.58 µM (inconclusive)

Target: T1, Replicative DNA helicase DnaB (Mycobacterium tuberculosis, UniProt P9WMR3)
T1 sequence (P9WMR3 whole entry): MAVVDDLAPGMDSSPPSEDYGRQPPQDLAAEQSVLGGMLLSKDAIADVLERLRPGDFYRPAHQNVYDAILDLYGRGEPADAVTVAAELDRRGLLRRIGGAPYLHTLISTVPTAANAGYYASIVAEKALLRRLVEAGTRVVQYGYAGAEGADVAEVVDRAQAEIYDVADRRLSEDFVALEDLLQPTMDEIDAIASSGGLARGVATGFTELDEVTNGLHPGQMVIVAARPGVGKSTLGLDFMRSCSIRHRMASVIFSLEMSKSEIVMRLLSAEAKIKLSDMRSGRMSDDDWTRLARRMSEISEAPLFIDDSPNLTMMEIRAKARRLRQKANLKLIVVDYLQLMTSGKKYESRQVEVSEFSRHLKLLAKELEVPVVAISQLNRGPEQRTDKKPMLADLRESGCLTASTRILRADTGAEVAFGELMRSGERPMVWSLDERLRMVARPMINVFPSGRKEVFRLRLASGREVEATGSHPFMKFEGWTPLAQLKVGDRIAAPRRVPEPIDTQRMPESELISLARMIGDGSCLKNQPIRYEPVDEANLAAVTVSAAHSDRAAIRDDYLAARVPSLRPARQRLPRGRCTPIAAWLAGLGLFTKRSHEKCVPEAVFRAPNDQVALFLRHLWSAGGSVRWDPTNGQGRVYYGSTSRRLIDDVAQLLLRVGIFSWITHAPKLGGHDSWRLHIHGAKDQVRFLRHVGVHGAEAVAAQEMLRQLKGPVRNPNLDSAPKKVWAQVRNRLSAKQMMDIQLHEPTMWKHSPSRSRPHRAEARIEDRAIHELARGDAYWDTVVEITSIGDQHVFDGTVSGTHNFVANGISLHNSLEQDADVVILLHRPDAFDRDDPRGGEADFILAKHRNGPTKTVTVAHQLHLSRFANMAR
Test: DnaB intein splicing inhibitors, dose response, biochemical, cell-free fluorescence (AID 449749)
Type: functional
Conditions: not given

Structure (SMILES) | AC50
Cc1nn(-c2ccccc2)c2c1C(c1ccc(F)cc1)C(C#N)=C(N)O2 (stereo not drawn) | 3.55 µM (active)
COc1ccc(OC)c(N2C(=O)C(Cl)=C(N3CCCCC3)C2=O)c1 | 11.8 µM (active)
Cc1n[nH]c2c1C(c1ccsc1C)C(C#N)=C(N)O2 (stereo not drawn) | 10.1 µM (active)
Cc1ccc(-n2nnc3c(SCC(=O)NCC4CCCO4)ncnc32)cc1 (stereo not drawn) | 4.72 µM (active)
O=C(CCl)Nc1ccc(N=Nc2ccccc2)cc1 | 6.81 µM (active)
Cc1n[nH]c2c1C(c1cccc(OC(=O)N3CCOCC3)c1)C(C#N)=C(N)O2 (stereo not drawn) | 31.2 µM (active)
COc1ccc(C2C(C#N)=C(N)Oc3[nH]nc(C)c32)cc1Cn1nnc2ccccc21 (stereo not drawn) | 7.76 µM (active)
CCOC(=O)CN1C(=O)N[C@@H](c2cccc(C(F)(F)F)c2)C(C(C)=O)=C1C | > 380 µM (inactive)
N#CCCn1[nH]c(-c2ccccc2)cc1=O | 5.47 µM (active)

Target: T2, Protein RecA (Mycobacterium tuberculosis, UniProt P9WHJ3)
T2 sequence (P9WHJ3 whole entry): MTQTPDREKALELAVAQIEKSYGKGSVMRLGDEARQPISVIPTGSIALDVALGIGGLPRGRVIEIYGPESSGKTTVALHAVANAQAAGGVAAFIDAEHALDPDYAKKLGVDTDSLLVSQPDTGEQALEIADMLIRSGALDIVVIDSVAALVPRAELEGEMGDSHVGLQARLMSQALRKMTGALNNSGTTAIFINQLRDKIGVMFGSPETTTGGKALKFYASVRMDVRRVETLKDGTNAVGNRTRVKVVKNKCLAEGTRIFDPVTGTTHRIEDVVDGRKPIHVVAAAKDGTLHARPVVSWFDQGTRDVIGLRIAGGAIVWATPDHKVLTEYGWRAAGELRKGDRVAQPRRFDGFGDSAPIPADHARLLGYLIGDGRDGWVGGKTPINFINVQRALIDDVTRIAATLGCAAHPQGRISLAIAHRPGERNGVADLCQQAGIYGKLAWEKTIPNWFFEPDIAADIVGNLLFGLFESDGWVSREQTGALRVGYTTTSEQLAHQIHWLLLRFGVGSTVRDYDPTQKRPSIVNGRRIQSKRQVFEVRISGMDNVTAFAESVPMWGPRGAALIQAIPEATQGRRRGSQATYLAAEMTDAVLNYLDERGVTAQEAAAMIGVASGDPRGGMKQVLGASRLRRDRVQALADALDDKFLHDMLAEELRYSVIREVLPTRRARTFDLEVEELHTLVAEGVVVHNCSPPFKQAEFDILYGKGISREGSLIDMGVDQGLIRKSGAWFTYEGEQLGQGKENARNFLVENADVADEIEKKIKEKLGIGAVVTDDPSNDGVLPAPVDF
Test: Fluorescence Cell-Free Homogeneous Dose Retest to Identify Inhibitors of RecA-Intein Splicing Activity. [Related pubchem assays (depositor defined):AID2097, AID2223, AID489010, AID492950]
Type: functional
Conditions: not given

Structure (SMILES) | EC50
Cc1nn(-c2ccccc2)c2c1C(c1ccc(F)cc1)C(C#N)=C(N)O2 (stereo not drawn) | 2.93 µM (active)
COc1ccc(OC)c(N2C(=O)C(Cl)=C(N3CCCCC3)C2=O)c1 | 4.67 µM (active)
Cc1n[nH]c2c1C(c1ccsc1C)C(C#N)=C(N)O2 (stereo not drawn) | 3.77 µM (active)
Cc1ccc(-n2nnc3c(SCC(=O)NCC4CCCO4)ncnc32)cc1 (stereo not drawn) | 4.23 µM (active)
O=C(CCl)Nc1ccc(N=Nc2ccccc2)cc1 | 2.18 µM (active)
Cc1n[nH]c2c1C(c1cccc(OC(=O)N3CCOCC3)c1)C(C#N)=C(N)O2 (stereo not drawn) | 7.44 µM (active)
COc1ccc(C2C(C#N)=C(N)Oc3[nH]nc(C)c32)cc1Cn1nnc2ccccc21 (stereo not drawn) | 3.87 µM (active)
CCOC(=O)CN1C(=O)N[C@@H](c2cccc(C(F)(F)F)c2)C(C(C)=O)=C1C | > 380 µM (inactive)
N#CCCn1[nH]c(-c2ccccc2)cc1=O | 3.32 µM (active)

System: INS1
Test: beta cell apoptosis inhibitors, cytokine rescue, dose response, luminescence, retest (AID 449756);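 note: cell death triggered by IL-1 beta plus TNF-alpha plus IFN-gamma mixture; protective hits raise ATP signal compared with cytokine alone wells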
Type: functional, cell-based
Conditions: Rattus norvegicus

Structure (SMILES) | AC50
CNc1nc(N)c([N+](=O)[O-])c(Nc2cccc(F)c2)n1 | > 260 µM (inactive)
C/C(=N\NC(=O)C(=O)Nc1cccc(Cl)c1)c1ccncc1 | 4.88 µM (active)

Target: T3, Cytochrome P450 1A2 (Homo sapiens, UniProt P05177);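 note: PubChem cytochrome P450 panel assay, CYP1A2 panel member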
T3 sequence (P05177 whole entry): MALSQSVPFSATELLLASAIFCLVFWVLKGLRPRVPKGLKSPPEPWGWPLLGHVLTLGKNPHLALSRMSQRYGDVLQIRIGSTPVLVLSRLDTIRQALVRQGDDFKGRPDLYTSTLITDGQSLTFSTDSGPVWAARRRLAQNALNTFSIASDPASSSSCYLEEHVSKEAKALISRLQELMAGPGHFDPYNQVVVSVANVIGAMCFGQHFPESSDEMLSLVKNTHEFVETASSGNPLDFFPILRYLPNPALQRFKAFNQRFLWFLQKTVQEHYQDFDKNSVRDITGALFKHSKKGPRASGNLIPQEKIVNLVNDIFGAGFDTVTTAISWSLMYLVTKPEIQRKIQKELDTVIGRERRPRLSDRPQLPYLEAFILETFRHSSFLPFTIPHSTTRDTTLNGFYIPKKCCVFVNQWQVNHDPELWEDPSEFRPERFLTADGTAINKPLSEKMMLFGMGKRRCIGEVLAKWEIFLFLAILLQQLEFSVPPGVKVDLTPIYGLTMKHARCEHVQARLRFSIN
Conditions: not given

Structure (SMILES) | AC50
COc1ccc(-n2c(C)cc(C=O)c2C)cc1Cl | 14.1 µM (inconclusive)

Target: Cytochrome P450 3A4 (Homo sapiens, UniProt P08684);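 note: CYP3A4 tested as one member of a cytochrome P450 panel screen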
Conditions: not given

Sequence of Cytochrome P450 3A4 (P08684 whole entry): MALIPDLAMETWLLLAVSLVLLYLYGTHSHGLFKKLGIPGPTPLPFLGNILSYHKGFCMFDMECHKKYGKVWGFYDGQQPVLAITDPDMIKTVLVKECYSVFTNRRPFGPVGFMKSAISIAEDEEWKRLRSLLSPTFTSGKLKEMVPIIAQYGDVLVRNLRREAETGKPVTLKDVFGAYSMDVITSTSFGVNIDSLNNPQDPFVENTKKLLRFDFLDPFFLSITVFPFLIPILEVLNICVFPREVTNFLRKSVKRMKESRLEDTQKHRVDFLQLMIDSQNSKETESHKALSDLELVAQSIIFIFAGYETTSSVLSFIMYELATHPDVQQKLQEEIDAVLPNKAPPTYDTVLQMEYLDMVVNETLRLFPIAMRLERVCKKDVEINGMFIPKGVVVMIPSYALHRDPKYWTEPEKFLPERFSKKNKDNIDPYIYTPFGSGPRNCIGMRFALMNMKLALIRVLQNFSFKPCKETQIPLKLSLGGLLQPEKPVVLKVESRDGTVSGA

Structure (SMILES) | AC50
Cc1ccc(NC(=O)C2CC(=O)n3c(nc4ccccc43)N2)cc1 (stereo not drawn) | 17.8 µM (inconclusive)

Target: Cytochrome P450 2C9 (Homo sapiens, UniProt P11712)
Conditions: not given

Sequence of Cytochrome P450 2C9 (P11712 whole entry): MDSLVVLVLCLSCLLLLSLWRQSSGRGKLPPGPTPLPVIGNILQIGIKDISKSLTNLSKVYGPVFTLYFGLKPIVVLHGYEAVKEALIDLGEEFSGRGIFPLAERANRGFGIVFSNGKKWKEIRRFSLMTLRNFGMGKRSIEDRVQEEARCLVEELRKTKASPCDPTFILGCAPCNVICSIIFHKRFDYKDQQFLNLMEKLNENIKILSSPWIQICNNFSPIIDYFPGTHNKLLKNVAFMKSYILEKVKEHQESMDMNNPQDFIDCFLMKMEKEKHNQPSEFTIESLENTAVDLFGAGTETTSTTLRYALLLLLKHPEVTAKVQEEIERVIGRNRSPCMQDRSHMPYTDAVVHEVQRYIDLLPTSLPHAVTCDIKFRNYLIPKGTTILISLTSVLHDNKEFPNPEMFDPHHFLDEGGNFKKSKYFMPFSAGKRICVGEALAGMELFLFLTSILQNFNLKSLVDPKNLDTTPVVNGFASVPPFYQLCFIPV

Structure (SMILES) | AC50
Cc1ccc(NC(=O)C2CC(=O)n3c(nc4ccccc43)N2)cc1 (stereo not drawn) | 0.0355 µM (inconclusive)
COC(=O)Cn1c(C(=O)N(C)C)cc2c1C[C@H]1CN(C(=O)c3ccccc3)[C@@](Cc3ccc(OC)cc3)(C(=O)OC)[C@@H]21 | 12.6 µM (inconclusive)
O=C(CN1C(=O)NC2(CCCCCC2)C1=O)N1CCN(S(=O)(=O)c2ccc(Cl)cc2)CC1 | 17.8 µM (inconclusive)
COc1ccc(-n2c(C)cc(C=O)c2C)cc1Cl | 17.8 µM (inconclusive)
